Assays:
[1] = tested on: A2058 human melanoma cells; assay: LPA1 chemotaxis assay; assay type: cell-based; details: 100 nM LPA, read-out: inhibition of LPA-driven chemotaxis, IC50
Description: Chemotaxis of the A2058 human melanoma cells was measured using the Neuroprobe ChemoTx® System plates (8 μm pore size, 5.7 mm diameter sites). The filter sites were coated with 0.001% fibronectin (Sigma) in 20 mM Hepes, pH 7.4 and allowed to dry. A2058 cells were serum-starved for 24 hours, then harvested with Cell Stripper and resuspended in DMEM containing 0.1% fatty-acid-free bovine serum albumin (BSA) to a concentration of 1×10^6/ml. Cells were mixed with an equal volume of test compound (2×) in DMEM containing 0.1% fatty-acid-free BSA and incubated at 37° C. for 15 minutes. LPA (100 nM in DMEM containing 0.1% fatty-acid-free BSA) or vehicle was added to each well of the lower chamber and 50 μl of the cell suspension/test compound mix was applied to the upper portion of the ChemoTx plate. Plates were incubated at 37° C. for three hours and then the cells removed from the upper portion by rinsing with PBS and scraping. The filter was dried then stained with HEMA 3 Staining System (Fisher Scientific). The absorbance of the filter was read at 590 nm and IC50s were determined using Symyx Assay Explorer.

human LPA1 = target: T1, human LPA1 (Homo sapiens, UniProt Q92633); assay: LPA1 calcium flux assay (HLPA1 Ca Flux); assay type: cell-based; details: CHO cells stably expressing human LPA1, stimulated with 10 nM LPA
T1 construct: the full-length cDNA for human LPA1 was obtained by PCR of the reverse transcription reaction; expressed in transfected cells
Description: A 1.1 kb cDNA encoding the human LPA1 receptor was cloned from human lung. Human lung RNA (Clontech Laboratories, Inc. USA) was reverse transcribed using the RETROscript kit (Ambion, Inc.) and the full-length cDNA for human LPA1 was obtained by PCR of the reverse transcription reaction. The nucleotide sequence of the cloned human LPA1 was determined by sequencing and confirmed to be identical to the published human LPA1 sequence (An et al. Biochem. Biophys. Res. Commun. 231:619 (1997). The cDNA was cloned into the pcDNA5/FRT expression plasmid and transfected in CHO cells using lipofectamine 2000 (Invitrogen Corp., USA). Clones stably expressing human LPA1 were selected using hygromycin and identified as cells that show Ca-influx in response to LPA.
Human LPA1 or LPA3 expressing CHO cells are seeded at 20,000-45,000 cells per well in a 96-well poly-D-lysine coated plate one or two days before the assay. Prior to the assay, the cells are washed once with PBS and then cultured in serum-free media overnight. On the day of the assay, a calcium indicator dye (Calcium 4, Molecular Devices) in assay buffer (HBSS with Ca^2+ and Mg^2+ and containing 20 mM Hepes and 0.3% fatty-acid free human serum albumin) is added to each well and incubation continued for 1 hour at 37° C. […] of test compounds in 2.5% DMSO are added to the cells and incubation continued at room temperature for 30 minutes. Cells are the stimulated by the addition of 10 nM LPA and intracellular Ca^2+ measured using the Flexstation 3 (Molecular Devices). IC50s are determined using Graphpad prism analysis of drug titration curves.

LPA receptor = details: compared with LPA1 (−/−) mice, in which renal fibrosis was significantly attenuated; cited from earlier work
[2] = tested on: highly peritoneal metastatic pancreatic cancer cell line; details: cited from earlier work
[3] = tested on: pancreatic cancer cell lines; details: cited from earlier work

T1 sequence (Q92633 whole entry): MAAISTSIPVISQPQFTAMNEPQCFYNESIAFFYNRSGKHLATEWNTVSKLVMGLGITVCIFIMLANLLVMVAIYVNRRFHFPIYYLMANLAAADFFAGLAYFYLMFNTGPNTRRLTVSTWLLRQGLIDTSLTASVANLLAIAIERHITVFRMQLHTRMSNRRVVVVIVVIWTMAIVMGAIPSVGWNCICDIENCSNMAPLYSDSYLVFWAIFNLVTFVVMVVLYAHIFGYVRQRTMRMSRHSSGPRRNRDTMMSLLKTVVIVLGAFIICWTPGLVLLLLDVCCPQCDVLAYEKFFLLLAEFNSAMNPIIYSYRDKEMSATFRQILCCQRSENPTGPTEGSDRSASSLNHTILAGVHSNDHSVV

Structure (SMILES) | IC50 [1] [µM] | IC50 (human LPA1) [µM] | development of renal fibrosis in UUO mice (LPA receptor) | LPA-induced and ascites-induced invasion activity [2] | in vitro migration in response to LPA and peritoneal fluid (ascites) from pancreatic cancer patients [3]
Cc1noc(-c2ccc(-c3ccc(C4(C(=O)O)CC4)cc3)cc2)c1[C@H](O)CO[C@H](C)c1ccccc1 [Compound 49, 1-(4′-{4-[(5)-1-Hydroxy-2-((R)-1-phenyl-ethoxy)-ethyl]-3-methyl-isoxazol-5-yl}-biphenyl-4-yl)-cyclopropanecarboxylic acid] | < 0.1 | < 0.3 | – | – | –
Cc1noc(-c2ccc(-c3ccc(C4(C(=O)NS(C)(=O)=O)CC4)cc3)cc2)c1[C@H](O)CSCc1ccccc1 [Compound 77, N-(1-{4′-[4-((S)-2-Benzylsulfanyl-1-hydroxy-ethyl)-3-methyl-isoxazol-5-yl]-biphenyl-4-yl}-cyclopropanecarbonyl)-methanesulfonamide] | < 0.1 | < 0.3 | – | – | –
Cc1noc(-c2ccc(-c3ccc(C4(C(=O)O)CC4)cc3)cc2)c1C(O)CSCc1ccccc1 (centres unmarked) [Compound 38, 1-{4′-[4-(2-Benzylsulfanyl-1-hydroxy-ethyl)-3-methyl-isoxazol-5-yl]-biphenyl-4-yl}-cyclopropanecarboxylic acid] | < 0.1 | < 0.3 | – | – | –
Cc1noc(-c2ccc(-c3ccc(C4(C(=O)O)CC4)cc3)cc2)c1CC(F)(F)CCc1ccccc1 [Compound 21, 1-{4′-[4-(2,2-Difluoro-4-phenyl-butyl)-3-methyl-isoxazol-5-yl]-biphenyl-4-yl}-cyclopropanecarboxylic acid] | < 0.1 | < 0.3 | – | – | –
Cc1noc(-c2ccc(CSCCC(=O)O)cc2)c1NC(=O)OC(C)c1ccccc1Cl (centres unmarked) [Ki16425] | – | – | closely resembled the LPA1 (−/−) mice | blocked | effectively blocked
Cc1noc(-c2ccc(-c3ccc(C4(C(=O)NS(C)(=O)=O)CC4)cc3)cc2)c1C(O)C(F)(F)CCc1ccccc1 (centres unmarked) [Compound 76, N-(1-{4′-[4-(2,2-Difluoro-1-hydroxy-4-phenyl-butyl)-3-methyl-isoxazol-5-yl]-biphenyl-4-yl}-cyclopropanecarbonyl)-methanesulfonamide] | < 0.1 | < 0.3 | – | – | –
Cc1noc(-c2ccc(-c3ccc(C4(C(=O)O)CC4)cc3)cc2)c1NC(C)CCc1ccc(Cl)cc1 (centres unmarked) [Compound 54, 1-(4′-{4-[3-(4-Chloro-phenyl)-1-methyl-propylamino]-3-methyl-isoxazol-5-yl}-biphenyl-4-yl)-cyclopropanecarboxylic acid] | < 0.1 | < 0.3 | – | – | –
Cc1noc(-c2ccc(-c3ccc(C4(C(=O)NS(C)(=O)=O)CC4)cc3)cc2)c1[C@H](O)CO[C@H](C)c1ccccc1 [Compound 72, N-[1-(4′-{4-[(S)-1-Hydroxy-2-((R)-1-phenyl-ethoxy)-ethyl]-3-methyl-isoxazol-5-yl]-biphenyl-4-yl)-cyclopropanecarbonyl}-methanesulfonamide] | < 0.1 | < 0.3 | – | – | –
Cc1noc(-c2ccc(-c3ccc(C4(C(=O)O)CC4)cc3)cc2)c1[C@H](O)CSCc1ccccc1 [Compound 65, 1-{4′-[4-((S)-2-Benzylsulfanyl-1-hydroxy-ethyl)-3-methyl-isoxazol-5-yl]-biphenyl-4-yl}-cyclopropanecarboxylic acid] | < 0.1 | < 0.3 | – | – | –
Cc1noc(-c2ccc(-c3ccc(C4(C(=O)O)CC4)cc3)cc2)c1C(O)COCc1ccccc1 (centres unmarked) [Compound 42, 1-{4′-[4-(2-Benzyloxy-1-hydroxy-ethyl)-3-methyl-isoxazol-5-yl]-biphenyl-4-yl}-cyclopropanecarboxylic acid] | < 0.1 | – | – | – | –
Cc1noc(-c2ccc(-c3ccc(C4(C(=O)O)CC4)cc3)cc2)c1C(O)COCc1ccccc1 (single isomer, unassigned) [Compound 47, 1-{4′-[4-(2-Benzyloxy-1-hydroxy-ethyl)-3-methyl-isoxazol-5-yl]-biphenyl-4-yl}-cyclopropanecarboxylic acid] | < 0.1 | – | – | – | –
Cc1noc(-c2ccc(-c3ccc(C4(C(=O)NS(C)(=O)=O)CC4)cc3)cc2)c1[C@H](O)COCc1ccccc1 [Compound 73, N-(1-{4′-[4-((S)-2-Benzyloxy-1-hydroxy-ethyl)-3-methyl-isoxazol-5-yl]-biphenyl-4-yl}-cyclopropanecarbonyl)-methanesulfonamide] | < 0.1 | < 0.3 | – | – | –
Cc1noc(-c2ccc(-c3ccc(C4(C(=O)O)CC4)cc3)cc2)c1NC(C)CCc1cccc(F)c1 (centres unmarked) [Compound 30, 1-(4′-{4-[3-(3-Fluoro-phenyl)-1-methyl-propylamino]-3-methyl-isoxazol-5-yl}-biphenyl-4-yl)-cyclopropanecarboxylic acid] | < 0.1 | < 0.3 | – | – | –
Cc1noc(-c2ccc(-c3ccc(C4(C(=O)O)CC4)cc3)cc2)c1NC(C)CCc1cccc(Cl)c1 (centres unmarked) [Compound 41, 1-(4′-{4-[3-(3-Chloro-phenyl)-1-methyl-propylamino]-3-methyl-isoxazol-5-yl}-biphenyl-4-yl)-cyclopropanecarboxylic acid] | < 0.1 | – | – | – | –

From patent US8217066B2, “Compounds as lysophosphatidic acid receptor antagonists” (Amira Pharmaceuticals, Inc., priority 2009, dated 2012)
